In ChEMBL document CHEMBL5331077, “Combining pharmacophore models derived from DNA-encoded chemical libraries with structure-based exploration to predict Tankyrase 1 inhibitors” (Eur J Med Chem, 2023):
The source made the active and inactive calls. No cut-off for these calls is given here.

Tests used:
[1] = biological target: T1, Protein mono-ADP-ribosyltransferase PARP12 (Homo sapiens) (UniProt Q9H0J9); assay: Inhibition of PARP12 (unknown origin)
T1 sequence (whole entry): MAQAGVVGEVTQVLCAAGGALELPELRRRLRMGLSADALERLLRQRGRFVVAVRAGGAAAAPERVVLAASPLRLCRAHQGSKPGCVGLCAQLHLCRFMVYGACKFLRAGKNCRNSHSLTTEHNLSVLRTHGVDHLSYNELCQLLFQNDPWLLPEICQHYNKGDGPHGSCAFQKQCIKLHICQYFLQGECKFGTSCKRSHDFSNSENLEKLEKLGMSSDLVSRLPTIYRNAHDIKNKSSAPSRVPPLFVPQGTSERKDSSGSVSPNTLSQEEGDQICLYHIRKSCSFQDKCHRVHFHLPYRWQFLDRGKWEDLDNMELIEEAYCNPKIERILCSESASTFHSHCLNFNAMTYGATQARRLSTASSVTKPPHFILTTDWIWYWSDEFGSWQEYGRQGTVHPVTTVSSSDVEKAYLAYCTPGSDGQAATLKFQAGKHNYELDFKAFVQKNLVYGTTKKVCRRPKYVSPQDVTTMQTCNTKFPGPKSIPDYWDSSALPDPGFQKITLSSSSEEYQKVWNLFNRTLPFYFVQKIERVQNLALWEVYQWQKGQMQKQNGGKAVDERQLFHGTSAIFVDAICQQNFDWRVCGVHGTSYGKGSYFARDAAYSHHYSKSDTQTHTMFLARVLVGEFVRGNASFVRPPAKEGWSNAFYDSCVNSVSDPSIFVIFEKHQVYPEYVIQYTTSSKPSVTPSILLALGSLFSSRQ

[2] = biological target: T2, Protein mono-ADP-ribosyltransferase PARP10 (Homo sapiens) (UniProt Q53GL7); assay: Inhibition of PARP10 (unknown origin)
T2 sequence (whole entry): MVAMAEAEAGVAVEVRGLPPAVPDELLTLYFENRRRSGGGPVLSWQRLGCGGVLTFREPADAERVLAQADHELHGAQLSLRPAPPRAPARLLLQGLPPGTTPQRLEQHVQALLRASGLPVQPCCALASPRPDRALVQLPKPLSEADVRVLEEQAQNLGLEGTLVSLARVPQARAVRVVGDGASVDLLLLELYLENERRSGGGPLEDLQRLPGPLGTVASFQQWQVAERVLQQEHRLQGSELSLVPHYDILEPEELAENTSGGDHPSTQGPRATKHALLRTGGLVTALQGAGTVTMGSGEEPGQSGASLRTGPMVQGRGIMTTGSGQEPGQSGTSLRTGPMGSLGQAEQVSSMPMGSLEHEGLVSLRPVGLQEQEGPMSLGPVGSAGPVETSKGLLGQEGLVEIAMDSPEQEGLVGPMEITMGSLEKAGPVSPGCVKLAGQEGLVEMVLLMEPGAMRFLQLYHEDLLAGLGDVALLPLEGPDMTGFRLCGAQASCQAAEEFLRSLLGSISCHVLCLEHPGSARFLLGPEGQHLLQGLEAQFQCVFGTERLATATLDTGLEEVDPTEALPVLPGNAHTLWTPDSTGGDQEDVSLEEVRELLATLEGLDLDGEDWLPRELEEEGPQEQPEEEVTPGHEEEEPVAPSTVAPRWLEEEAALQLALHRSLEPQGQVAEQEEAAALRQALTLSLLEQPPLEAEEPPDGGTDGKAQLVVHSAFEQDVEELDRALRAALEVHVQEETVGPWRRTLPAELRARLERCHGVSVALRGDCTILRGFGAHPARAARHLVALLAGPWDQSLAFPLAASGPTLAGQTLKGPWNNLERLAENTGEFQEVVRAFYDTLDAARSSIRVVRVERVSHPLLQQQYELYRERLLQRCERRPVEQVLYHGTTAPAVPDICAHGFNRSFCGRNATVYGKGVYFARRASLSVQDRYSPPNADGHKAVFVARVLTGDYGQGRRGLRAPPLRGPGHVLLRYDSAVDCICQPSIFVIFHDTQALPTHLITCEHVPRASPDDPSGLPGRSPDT

[3] = biological target: T3, Poly [ADP-ribose] polymerase tankyrase-1 (Homo sapiens, UniProt O95271); assay: Inhibition of TNKS1 (unknown origin) using biotinylated NAD as substrate preincubated for 30 mins followed by substrate addition and measured after 1 hr by BioTek synergy 2 microplate reader analysis
T3 sequence (O95271 whole entry): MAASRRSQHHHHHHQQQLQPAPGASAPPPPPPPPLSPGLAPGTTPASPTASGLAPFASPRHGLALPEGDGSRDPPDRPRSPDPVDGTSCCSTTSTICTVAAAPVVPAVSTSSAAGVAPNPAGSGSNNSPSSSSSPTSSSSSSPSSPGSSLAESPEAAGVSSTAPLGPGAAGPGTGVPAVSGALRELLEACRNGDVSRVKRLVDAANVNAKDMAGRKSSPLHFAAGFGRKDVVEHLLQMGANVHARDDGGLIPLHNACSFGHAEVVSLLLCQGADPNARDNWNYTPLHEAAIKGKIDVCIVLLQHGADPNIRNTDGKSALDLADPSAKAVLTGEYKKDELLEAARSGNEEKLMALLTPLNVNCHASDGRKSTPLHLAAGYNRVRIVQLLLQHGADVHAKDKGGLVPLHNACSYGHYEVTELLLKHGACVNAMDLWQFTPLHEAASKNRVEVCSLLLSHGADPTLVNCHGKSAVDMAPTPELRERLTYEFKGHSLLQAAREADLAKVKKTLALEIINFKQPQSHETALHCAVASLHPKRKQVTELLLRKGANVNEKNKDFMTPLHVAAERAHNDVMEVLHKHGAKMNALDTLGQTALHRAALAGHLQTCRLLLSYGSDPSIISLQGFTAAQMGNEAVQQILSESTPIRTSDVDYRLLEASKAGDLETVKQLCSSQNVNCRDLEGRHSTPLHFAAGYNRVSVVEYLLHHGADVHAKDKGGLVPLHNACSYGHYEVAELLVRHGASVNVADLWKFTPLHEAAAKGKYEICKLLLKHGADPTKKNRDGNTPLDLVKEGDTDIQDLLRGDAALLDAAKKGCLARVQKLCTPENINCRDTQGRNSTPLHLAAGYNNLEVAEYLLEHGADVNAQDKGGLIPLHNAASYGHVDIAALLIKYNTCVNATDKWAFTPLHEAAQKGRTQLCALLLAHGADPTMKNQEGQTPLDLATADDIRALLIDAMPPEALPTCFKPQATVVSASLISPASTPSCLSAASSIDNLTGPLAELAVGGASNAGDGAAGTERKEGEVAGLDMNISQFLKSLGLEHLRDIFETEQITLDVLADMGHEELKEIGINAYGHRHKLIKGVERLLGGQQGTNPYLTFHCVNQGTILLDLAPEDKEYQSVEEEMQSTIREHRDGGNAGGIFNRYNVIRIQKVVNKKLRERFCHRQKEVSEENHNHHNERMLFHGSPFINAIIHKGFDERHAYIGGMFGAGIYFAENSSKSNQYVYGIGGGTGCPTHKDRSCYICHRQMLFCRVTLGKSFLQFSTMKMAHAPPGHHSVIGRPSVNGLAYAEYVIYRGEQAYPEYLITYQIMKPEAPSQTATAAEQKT

SMILES | inhibition [1] | inhibition [2] | IC50 [3]
Cc1cc(OCC(=O)NCCNC(=O)c2cccc(COc3ccccc3C(N)=O)c2)c2c3c(c(=O)oc2c1)CCC3 | inactive | Active | 2 nM
CNC(=O)[C@H](CNC(=O)CCn1c(=O)[nH]c(=O)c2ccccc21)NC(=O)c1cnc2ccccc2c1 | inactive | inactive | 0.8 nM
